In patent US6242494A, “Substituted β-amino acid inhibitors of methionine aminopeptidase-2” (Abbott Laboratories, priority 1999, dated 2001):
pIC50: −log10 of the molar value. Where a name gives a salt, the structure may show the parent alone.

Each compound was assayed against T1, methionine aminopeptidase-2 (MetAP2) (Homo sapiens, UniProt P50579) (assay: Inhibition of MetAP2 enzyme activity (96-well, Met-Ala-Ser substrate, L-amino acid oxidase/peroxidase/ortho-dianisidine, 450 nm)). Conditions: IC50, recombinant MetAP2 4 μg/mL, pH 7.4, Met-Ala-Ser substrate, 20 minutes.
T1 construct: made in house; host or cells: insect cells, baculovirus system (secreted, purified from culture supernatant)
T1 sequence (P50579 whole entry): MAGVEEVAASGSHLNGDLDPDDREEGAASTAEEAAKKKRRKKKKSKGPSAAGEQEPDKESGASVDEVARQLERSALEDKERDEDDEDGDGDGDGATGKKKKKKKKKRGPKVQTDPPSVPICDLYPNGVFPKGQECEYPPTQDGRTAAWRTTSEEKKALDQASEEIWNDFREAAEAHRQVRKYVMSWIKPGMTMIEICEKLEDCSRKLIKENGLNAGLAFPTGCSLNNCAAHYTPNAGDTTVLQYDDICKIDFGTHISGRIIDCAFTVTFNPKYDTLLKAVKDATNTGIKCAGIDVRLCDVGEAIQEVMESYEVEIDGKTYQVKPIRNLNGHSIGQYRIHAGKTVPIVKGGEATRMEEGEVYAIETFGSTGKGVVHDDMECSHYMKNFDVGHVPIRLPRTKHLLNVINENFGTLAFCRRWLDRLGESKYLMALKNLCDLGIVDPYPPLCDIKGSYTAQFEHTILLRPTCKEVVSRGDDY
Format: biochemical
Protocol: The ability of compounds of the present invention to inhibit methionine aminopeptidase 2 was evaluated using the following assay.
Assays for MetAP2 enzyme activity and MetAP2 inhibition were performed in 96-well microtiter plates. Compounds to be tested for MetAP2 inhibition were dissolved in dimethyl-sulfoxide at 10 mM and diluted ten-fold in assay buffer ([…], pH 7.4, 100 mM NaCl). Ten microliters of solution of each compound to be tested for inhibition were introduced into each cell of the plate, with each compound being tested in triplicate.
The absorbence at 450 nanometers was measured every 20 seconds over a period of twenty minutes using an automaic plate reader (Molecular Devices, CA, USA). The Vmax in mOD/min, calculated for each well was used to represent MetAP2 activity. The IC50 for each inhibitor was obtained by plotting the remaining MetAP2 activity versus inhibitor concentration.
`Cc1cc(I)ccc1NC(=O)C(O)[C@H](N)CC1CCCCC1` (mixture of isomers) [Example 173, (2RS,3R)-3-amino-4-cyclohexyl-2hydroxy-N-(4-iodo-2-methylphenyl)butanamide hydrochloride] gave a pIC50 of 6.24. Work on `COc1cc(Nc2ccccc2)ccc1NC(=O)C(O)[C@H](N)CC1CCCCC1` (mixture of isomers) [Example 174, (2RS,3R)-3-amino-N-(4-anilino-2-methoxyphenyl)-4-cyclohexyl-2-hydroxybutanamide hydrochloride] yielded a pIC50 of 5.82. Compound `CCOc1ccccc1NC(=O)C(O)[C@H](N)CC1CCCCC1` (mixture of isomers) [Example 175, (2RS,3R)-3-amino-4-cyclohexyl-N-(2-ethoxyphenyl)-2-hydroxybutanamide hydrochloride] has a pIC50 of 5.68. With `COc1cc(Cl)c(C)cc1NC(=O)C(O)[C@H](N)CC1CCCCC1` (mixture of isomers) [Example 176, (2RS,3R)-3-amino-N-(4-chloro-2-methoxy-5-methylphenyl)-4-cyclohexyl-2-hydroxybutanamide hydrochloride] the pIC50 was 5.47. `COc1ccc(OC)c(NC(=O)C(O)[C@H](N)CC2CCCCC2)c1` (mixture of isomers) [Example 177, (2RS,3R)-3-amino-4cyclohexyl-N-(2,5-dimethoxyphenyl)-2-hydroxybutanamide hydrochloride] was tested, and the pIC50 was 5.70. In the case of `COc1ccc(NC(C)=O)cc1NC(=O)C(O)[C@H](N)CC1CCCCC1` (mixture of isomers) [Example 178, (2RS,3R)-N-(5-(acetylamino)-2-methoxyphenyl)-3-amino-4-cyclohexyl-2-hydroxybutanamide hydrochloride], the pIC50 was 4.96. `COc1cc2c(cc1NC(=O)C(O)[C@H](N)CC1CCCCC1)oc1ccccc12` (mixture of isomers) [Example 179, (2RS,3R)-3-amino-4-cyclohexyl-2-hydroxy-N-(2-methoxydibenzo(b,d)furan-3-yl)butanamide hydrochloride] gave a pIC50 of 5.31. Work on `COc1cc(OC)c(NC(=O)C(O)[C@H](N)CC2CCCCC2)cc1Cl` (mixture of isomers) [Example 180, (2RS,3R)-3-amino-N-(5-chloro-2,4-dimethoxyphenyl)-4-cyclohexyl-2-hydroxybutanamide hydrochloride] yielded a pIC50 of 5.70. In the case of `CCOc1ccc(OCC)c(NC(=O)C(O)[C@H](N)CC2CCCCC2)c1` (mixture of isomers) [Example 181, (2RS,3R)-3-amino-4-cyclohexyl-N-(2,5-diethoxyphenyl)-2-hydroxybutanamide hydrochloride], the pIC50 was 5.01. Compound `COc1ccc(C(C)(C)C)cc1NC(=O)C(O)[C@H](N)CC1CCCCC1` (mixture of isomers) [Example 182, (2RS,3R)-3-amino-N-(5-(tert-butyl)-2-methoxyphenyl)-4-cyclohexyl-2-hydroxybutanamide hydrochloride] has a pIC50 of 5.10. `N[C@H](CC1CCCCC1)C(O)C(=O)Nc1ccccc1Oc1ccccc1` (mixture of isomers) [Example 183, (2RS,3R)-3-amino-4-cyclohexyl-2-hydroxy-N-(2-phenoxyphenyl)butanamide hydrochloride] was tested, and the pIC50 was 5.06. Work on `Cc1ccc([N+](=O)[O-])cc1NC(=O)C(O)[C@H](N)CC1CCCCC1` (mixture of isomers) [Example 184, (2RS,3R)-3-amino-4-cyclohexyl-2-hydroxy-N-(2-methyl-5-nitrophenyl)butanamide hydrochloride] yielded a pIC50 of 6.37. `N[C@H](CC1CCCCC1)C(O)C(=O)Nc1ccc(Oc2ccccc2)cc1` (mixture of isomers) [Example 185, (2RS,3R)-3-amino-4-cyclohexyl-2-hydroxy-N-(4-phenoxyphenyl)butanamide hydrochloride] was tested, and the pIC50 was 5.74. In the case of `COc1ccc(CNC(=O)C(O)[C@H](N)CC2CCCCC2)cc1` (mixture of isomers) [Example 186, (2RS,3R)-3-amino-4-cyclohexyl-2-hydroxy-N-(4-methoxybenzyl)butanamide hydrochloride], the pIC50 was 5.96. With `Cc1ccc(CNC(=O)C(O)[C@H](N)CC2CCCCC2)cc1` (mixture of isomers) [Example 187, (2RS,3R)-3-amino-4-cyclohexyl-2-hydroxy-N-(4-methylbenzyl)butanamide hydrochloride] the pIC50 was 5.92. `N[C@H](CC1CCCCC1)C(O)C(=O)NCc1cccc(Cl)c1` (mixture of isomers) [Example 188, (2RS,3R)-3-amino-N-(3-chlorobenzyl)-4-cyclohexyl-2-hydroxybutanamide hydrochloride] showed a pIC50 of 5.80. `COc1cccc(CNC(=O)C(O)[C@H](N)CC2CCCCC2)c1` (mixture of isomers) [Example 189, (2RS,3R)-3-amino-4-cyclohexyl-2-hydroxy-N-(3-methoxybenzyl)butanamide hydrochloride] was tested, and the pIC50 was 5.82. With `N[C@H](CC1CCCCC1)C(O)C(=O)NCc1ccc(Br)cc1` (mixture of isomers) [Example 190, (2RS,3R)-3-amino-N-(4-bromobenzyl)-4-cyclohexyl-2-hydroxybutanamide hydrochloride] the pIC50 was 5.89. Compound `Cc1cccc(CNC(=O)C(O)[C@H](N)CC2CCCCC2)c1` (mixture of isomers) [Example 191, (2RS,3R)-3-amino-4-cyclohexyl-2hydroxy-N-(3-methylbenzyl)butanamide hydrochloride] has a pIC50 of 5.60. Compound `N[C@H](CC1CCCCC1)C(O)C(=O)NCCc1ccccc1` (mixture of isomers) [Example 192, (2RS,3R)-3-amino-4-cyclohexyl-2-hydroxy-N-phenethylbutanamide hydrochloride] has a pIC50 of 5.92. `N[C@H](CC1CCCCC1)C(O)C(=O)NCc1ccc(Cl)cc1` (mixture of isomers) [Example 193, (2RS,3R)-3-amino-N-(4-chlorobenzyl)-4-cyclohexyl-2-hydroxybutanamide hydrochloride] showed a pIC50 of 5.60. With `Cc1ccc(CCNC(=O)C(O)[C@H](N)CC2CCCCC2)cc1` (mixture of isomers) [Example 194, (2RS,3R)-3-amino-4-cyclohexyl-2-hydroxy-N-(4-methylphenethyl)butanamide hydrochloride] the pIC50 was 5.85. Work on `COc1ccc(CCNC(=O)C(O)[C@H](N)CC2CCCCC2)cc1` (mixture of isomers) [Example 195, (2RS,3R)-3-amino-4-cyclohexyl-2-hydroxy-N-(4-methoxyphenethyl)butanamide hydrochloride] yielded a pIC50 of 5.89. For `COc1cccc(CCNC(=O)C(O)[C@H](N)CC2CCCCC2)c1` (mixture of isomers) [Example 196, (2RS,3R)-3-amino-4-cyclohexyl-2-hydroxy-N-(3-methoxyphenethyl)butanamide hydrochloride], the pIC50 was 6.09. With `COc1ccccc1CCNC(=O)C(O)[C@H](N)CC1CCCCC1` (mixture of isomers) [Example 197, (2RS,3R)-3-amino-4-cyclohexyl-2-hydroxy-N-(2-methoxyphenethyl)butanamide hydrochloride] the pIC50 was 6.24. In the case of `N[C@H](CC1CCCCC1)C(O)C(=O)NCCc1ccc(Cl)cc1` (mixture of isomers) [Example 198, (2RS,3R)-3-amino-N-(4-chlorophenethyl)-4-cyclohexyl-2-hydroxybutanamide hydrochloride], the pIC50 was 6.08. For `N[C@H](CC1CCCCC1)C(O)C(=O)NCCc1cccc(Cl)c1` (mixture of isomers) [Example 199, (2RS,3R)-3-amino-N-(3-chlorophenethyl)-4-cyclohexyl-2-hydroxybutanamide hydrochloride], the pIC50 was 6.00.
